Experimental data: patent publication US20260014147A1, “STAT6 DEGRADERS” (Gilead Sciences, Inc., priority 2024, published 2026)

Target: T1, STAT6 (endogenous, HiBiT-tagged) in HeLa LgBiT clone 4.14 cells (Homo sapiens, UniProt P42226)
T1 construct: These cells express endogenous STAT6; host or cells: HeLa LgBiT clone 4.14
T1 sequence (P42226 1-847): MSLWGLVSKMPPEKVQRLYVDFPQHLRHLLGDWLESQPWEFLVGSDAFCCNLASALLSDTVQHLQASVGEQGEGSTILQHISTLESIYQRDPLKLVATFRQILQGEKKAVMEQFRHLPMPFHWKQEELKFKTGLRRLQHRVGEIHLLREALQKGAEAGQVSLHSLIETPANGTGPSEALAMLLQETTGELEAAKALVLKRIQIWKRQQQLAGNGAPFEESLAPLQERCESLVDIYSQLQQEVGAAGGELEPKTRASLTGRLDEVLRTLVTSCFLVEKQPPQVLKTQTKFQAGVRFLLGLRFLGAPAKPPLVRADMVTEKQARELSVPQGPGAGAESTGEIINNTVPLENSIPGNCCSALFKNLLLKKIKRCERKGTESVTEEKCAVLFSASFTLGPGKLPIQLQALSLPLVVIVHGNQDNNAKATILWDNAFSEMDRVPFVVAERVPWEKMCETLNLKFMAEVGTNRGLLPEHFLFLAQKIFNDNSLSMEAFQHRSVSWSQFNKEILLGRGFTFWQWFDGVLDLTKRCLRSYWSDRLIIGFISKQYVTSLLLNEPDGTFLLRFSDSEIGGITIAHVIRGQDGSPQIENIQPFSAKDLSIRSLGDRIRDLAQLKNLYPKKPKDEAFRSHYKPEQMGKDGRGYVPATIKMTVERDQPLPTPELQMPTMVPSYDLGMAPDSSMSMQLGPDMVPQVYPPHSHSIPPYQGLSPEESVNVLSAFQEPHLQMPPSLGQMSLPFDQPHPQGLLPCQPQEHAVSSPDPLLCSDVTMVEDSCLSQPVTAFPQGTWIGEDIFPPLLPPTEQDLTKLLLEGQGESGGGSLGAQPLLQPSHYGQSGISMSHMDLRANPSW
Assay: STAT6 Degrader Assay (HiBiT based, HeLa LgBiT clone 4.14 cells, luminescence, DC50)
Format: cell-based
Conditions: DC50 provided for test compounds with >80% Emax, geometric mean, read-out: STAT6 degradation DC50
Experimental: This was a HiBit based assay. A HeLa cell line stably transfected with a small protein, LgBit (Large Bit) was obtained from Promega. These cells express endogenous STAT6. A small 11 amino acid gene sequence (HiBiT) was inserted in the STAT6 gene using CRISPR technology. Once STAT6 protein is expressed in the cells, the HiBiT sequence will bind the LgBit in the cells resulting in a functional NanoBiT protein, giving a luminescent tag to STAT6. Single cell clones were prepared and the clone 4.14 was selected for the assay based on that clone showing high luminescence, high STAT6 phosphorylation upon stimulation with IL-4, and inhibition of luminescence when cells were treated with STAT6 siRNA. HeLa LgBiT clone 4.14 cells were suspended in DMEM with 10% FCS, 1% Pen/Strep, Na-pyrovate and Hygromycin B, at a concentration of […]. 5000 cells were added pr well of a 384 well plate and 20 nL of compound was added by Echo® liquid handler. NN6394A (terfenadine, a toxic compound) was added to control wells at 50 µM concentration to establish the assay window. In these wells the cells are dead which equals 100% degradation of STAT6. After 4-24 h of incubation at 37° C. under 5% CO2/95% air, […] substrate (Nano-GLO®) was added to the wells and the plates were centrifuged and incubated for 0.5 h. The luminescence in the wells as a measure of non-degraded STAT6 was measured in a plate reader (BMG Pherastar FSX). The dose-response curves for Examples 2a2, 2t1, 2 h3, and 2r1 are shown below (where percent degradation is plotted vs. test compound concentration in M on a log-scale).

Row | SMILES | DC50 [nM]
1 | Cn1c(CN2CCC(c3ccc(C(=O)N4CCC(CN5CCN(c6ccc(NC7CCC(=O)NC7=O)cc6F)CC5)CC4)cc3)CC2)cc2c(-c3ccc4[nH]ncc4c3)ccnc21 (single isomer, unassigned) [Example 2c6] | 22.5
2 | CNc1ccc(-c2ccnc3c2cc([C@H](C)N2CCC(c4ccc(C(=O)N5CCC(CN6CCN(c7ncc(NC8CCC(=O)NC8=O)cc7F)CC6)CC5)cc4)CC2)n3C)cn1 (stereo partly drawn) [Example 2n13, 3-((5-fluoro-6-(4-((1-(4-(1-((S)-1-(1-methyl-4-(6-(methylamino)pyridin-3-yl)-1H-pyrrolo[2,3-b]pyridin-2-yl)ethyl)piperidin-4-yl)benzoyl)piperidin-4-yl)methyl)-piperazin-1-yl)pyridin-3-yl)amino)piperidine-2,6-dione] | 30
3 | Cn1c(CN2CCC(c3ccc(C(=O)N4CCC(CN5CCN(c6ccc(NC7CCC(=O)NC7=O)cc6)CC5)CC4)cc3)CC2)cc2c(-c3ccc4[nH]ncc4c3)ccnc21 (stereo not drawn) [Example 2b1, 3-((4-(4-((1-(4-(1-((4-(1H-indazol-5-yl)-1-methyl-1H-pyrrolo[2,3-b]pyridin-2-yl)methyl)piperidin-4-yl)benzoyl)piperidin-4-yl)methyl)piperazin-1-yl)phenyl)amino)piperidine-2,6-dione] | 19.2
4 | COCc1nc2cc(-c3ccnc4c3cc(CN3CCC(c5ccc(C(=O)N6CCC(CN7CCN(c8ncc(NC9CCC(=O)NC9=O)cc8F)CC7)CC6)cc5)CC3)n4C)ccc2[nH]1 (stereo not drawn) [Example 2n6, 3-((5-fluoro-6-(4-((1-(4-(1-((4-(2-(methoxymethyl)-1H-benzo[d]imidazol-5-yl)-1-methyl-1H-pyrrolo[2,3-b]pyridin-2-yl)methyl)piperidin-4-yl)benzoyl)piperidin-4-yl)methyl)piperazin-1-yl)pyridin-3-yl)amino)piperidine-2,6-dione] | 11.7

Same assay, conditions: Emax provided for test compounds with <80% Emax (and 2c15), geometric mean, read-out: STAT6 degradation Emax

Row | SMILES | Emax [%]
5 | Cn1c(CN2CC=C(c3ccc(C(=O)N4CCn5nc(CN6CCC(c7ccc(NC8CCC(=O)NC8=O)cc7F)CC6)cc5C4)cn3)CC2)cc2c(-c3ccc(N)nc3)ccnc21 (stereo not drawn) [Example 2c37, 3-((4-(1-((5-(1′-((4-(6-aminopyridin-3-yl)-1-methyl-1H-pyrrolo[2,3-b]pyridin-2-yl)methyl)-1′, 2′, 3′, 6′-tetrahydro-[2,4′-bipyridine]-5-carbonyl)-4,5,6,7-tetrahydropyrazolo[1,5-a]pyrazin-2-yl)methyl)piperidin-4-yl)-3-fluorophenyl)amino)piperidine-2,6-dione] | < 20
6 | COCc1nc2cc(-c3ccnc4c3cc([C@H](C)N3CCC(c5ccc(C(=O)N6CCC(CN7CCN(c8ccc(NC9CCC(=O)NC9=O)c(F)n8)CC7)CC6)cc5)CC3)n4C)ccc2[nH]1 (stereo partly drawn) [Example 2n11, 3-((2-fluoro-6-(4-((1-(4-(1-((S)-1-(4-(2-(methoxymethyl)-1H-benzo[d]-imidazol-5-yl)-1-methyl-1H-pyrrolo[2,3-b]pyridin-2-yl)ethyl)piperidin-4-yl)benzoyl)-piperidin-4-yl)methyl)piperazin-1-yl)pyridin-3-yl)amino)piperidine-2,6-dione] | 70 to 80
7 | CNc1ccc(-c2ccnc3c2cc([C@H](C)N2CCC(c4ccc(C(=O)N5CCC(CN6CCN(c7ncc(NC8CCC(=O)NC8=O)cc7F)CC6)CC5)cc4)CC2)n3C)cn1 (stereo partly drawn) [Example 2n13, 3-((5-fluoro-6-(4-((1-(4-(1-((S)-1-(1-methyl-4-(6-(methylamino)pyridin-3-yl)-1H-pyrrolo[2,3-b]pyridin-2-yl)ethyl)piperidin-4-yl)benzoyl)piperidin-4-yl)methyl)-piperazin-1-yl)pyridin-3-yl)amino)piperidine-2,6-dione] | 79.3
8 | Cc1cc(C(=O)N2CCC(CN3CCN(c4ccc(NC5CCC(=O)NC5=O)cc4F)CC3)CC2)cc(C)c1C1=CCN(Cc2cc3c(-c4ccc(N)nc4)ccnc3n2C)CC1 (stereo not drawn) [Example 2c15, 3-((4-(4-((1-(4-(1-((4-(6-aminopyridin-3-yl)-1-methyl-1H-pyrrolo[2,3-b]pyridin-2-yl)methyl)-1,2,3,6-tetrahydropyridin-4-yl)-3,5-dimethylbenzoyl)piperidin-4-yl)methyl)piperazin-1-yl)-3-fluorophenyl)amino)piperidine-2,6-dione] | 80 to 90
9 | Cn1c(CN2CCC(c3ccc(C(=O)N4CCC(CN5CCN(c6ncc(NC7CCC(=O)NC7=O)cc6F)CC5)CC4)cc3)CC2)cc2c(-c3ccc(N)nc3)ccnc21 (stereo not drawn) [Example 2n5, 3-((6-(4-((1-(4-(1-((4-(6-aminopyridin-3-yl)-1-methyl-1H-pyrrolo[2,3-b]pyridin-2-yl)methyl)-piperidin-4-yl)benzoyl)piperidin-4-yl)methyl)piperazin-1-yl)-5-fluoropyridin-3-yl)amino)piperidine-2,6-dione] | 60 to 70
